# Measured values: patent EP0429999A1, “Novel cephalosporins, process for their preparation and their use as medicaments” (BAYER AG, priority 1989, dated 1991)
# How the values were obtained:
# Assay in all cases: MIC (MHK), agar dilution on Iso-Sensitest agar, multipoint inoculator
# Format in all cases: cell-based
# E. coli A 261 = settings: Escherichia coli, A261; strain E. coli A 261; 37°C, read after ca. 20 h, ca. 10^4 colony-forming particles per inoculation point
# Description: (§1) Die minimalen Hemmkonzentrationen (MHK) wurden per Reihenverdünnungsverfahren auf Iso-Sensitest Agar (Oxoid) bestimmt. Für jede Prüfsubstanz wurde eine Reihe von Agarplatten hergestellt, die bei jeweils doppelter Verdünnung abfallende Konzentrationen des Wirkstoffes enthielten. Die Agarplatten wurden mit einem MultipointInokulator (Denley) beimpft. Zum Beimpfen wurden Übernachtkulturen der Erreger verwandt, die zuvor so verdünnt wurden, daß jeder Impfpunkt ca. 10^4 koloniebildende Partikel enthielt. Die beimpften Agarplatten wurden bei 37°C bebrütet, und das Keimwachstum wurde nach ca. 20 Stunden abgelesen. Der MHK-Wert (µg/ml) gibt die niedrigste Wirkstoffkonzentration an, bei der mit bloßem Auge kein Keimwachstum zu erkennen war.
# (§2) MHK-Werte: Agarverdünnung/Multipoint
# Enterococc. 27185 = settings: strain Enterococc. 27185; 37°C, read after ca. 20 h, ca. 10^4 colony-forming particles per inoculation point
# Description: as §1, §2
# Klebs. 6097 = settings: strain Klebs. 6097; 37°C, read after ca. 20 h, ca. 10^4 colony-forming particles per inoculation point
# Description: as §1, §2
# Staph. aur. 25455 = settings: strain Staph. aur. 25455; 37°C, read after ca. 20 h, ca. 10^4 colony-forming particles per inoculation point
# Description: as §1, §2
# Staph. epi. 25185 = settings: strain Staph. epi. 25185; 37°C, read after ca. 20 h, ca. 10^4 colony-forming particles per inoculation point
# Description: as §1, §2
# Strept. faec. 27101 = settings: strain Strept. faec. 27101; 37°C, read after ca. 20 h, ca. 10^4 colony-forming particles per inoculation point
# Description: as §1, §2
smiles,measurement,setting,value
C/C=C\C1=C(C(=O)O)N2C(=O)[C@@H](NC(=O)[C@H](N)c3cc4sc(N)nc4s3)[C@H]2SC1 [Beispiel 13a],MIC,E. coli A 261,4 µg/mL
same,MIC,Enterococc. 27185,2 µg/mL
same,MIC,Klebs. 6097,2 µg/mL
same,MIC,Staph. aur. 25455,≤ 0.25 µg/mL
same,MIC,Staph. epi. 25185,≤ 0.25 µg/mL
same,MIC,Strept. faec. 27101,16 µg/mL
